Drawing on ChEMBL document CHEMBL5107983, “Adipocyte fatty acid binding protein 4 (FABP4) inhibitors. An update from 2017 to early 2022” (Eur J Med Chem, 2022), this text covers IC50 for seven compounds.

Assay [1] concerns the target T1, Fatty acid-binding protein, adipocyte (Homo sapiens, UniProt P15090). Nature of the assay: Inhibition of FABP4 (unknown origin) incubated for 10 mins by fluorescence based analysis.
Assay [2] addresses T1, Fatty acid-binding protein, adipocyte. Nature of the assay: Inhibition of human FABP4.
The target is the same in assay [3]. Nature of the assay: Displacement of 1,8-ANS from human recombinant FABP4 incubated for 4 mins by fluorescence based analysis.

A word on the IC50: it is the midpoint of a concentration-inhibition curve.

Each structure is given as a SMILES string.

T1 sequence (P15090 whole entry): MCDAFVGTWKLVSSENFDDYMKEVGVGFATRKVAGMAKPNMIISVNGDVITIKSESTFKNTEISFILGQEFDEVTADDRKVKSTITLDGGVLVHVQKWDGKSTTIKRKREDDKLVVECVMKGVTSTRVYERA

For `O=C(O)Cc1cn(-c2ccccc2-c2nc(-c3ccccc3)c(-c3ccccc3)s2)nn1`, the half-maximal inhibitory concentration (IC50) in assay [1] came out at 5.59 µM.

The compound `COc1cc(Br)c(C(C)(C)C)cc1S(=O)(=O)Nc1ccccc1C(=O)O` came in with an IC50 in assay [2] of 1.5 µM.

`CC(C)OC(=O)C(C(=O)C(F)(F)F)c1cc(NS(=O)(=O)c2ccccc2)ccc1O` (configuration not stated): in assay [3], the IC50 amounted to 3.5 µM.

`C=CCn1c(=O)[nH]c(=O)c2[nH]c(-c3ccc(OCCNC(=O)c4ccccc4)cc3)cc21` yielded a 50% inhibitory concentration (IC50) in assay [1] of 2.23 µM.

Regarding `O=C(O)Cc1cn(-c2ccccc2-c2nc(-c3ccc4ccccc4c3)c(-c3ccccc3)s2)nn1`, the IC50 in assay [1] came out at 3.7 µM.

`O=C(O)Cc1cn(-c2ccccc2-c2nc(-c3ccc(Cl)cc3)c(-c3ccccc3)s2)nn1` displayed an IC50 in assay [1] of 4.31 µM.

Regarding `O=C(O)c1cccc(NS(=O)(=O)c2ccc(Br)c3ccccc23)c1`, in assay [2], the 50% inhibitory concentration (IC50) was determined as 5.5 µM.
